From patent US20220151935A1, “USE OF AMINO ACID BASED NUTRIENTS AND PHARMACEUTICAL COMPOSITION CONTAINING THE SAME” (priority 2018, published 2022)
Marks after values point to notes of the source that are not given here.

Columns and labels:
[1] = test system: human liver cancer cells (HepG2); assay: Tumor weight and tumor inhibition in nude mice bearing HepG2; type: in vivo; conditions: for Intratumoral injection Tumor inhibition rate / Intratumoral injection Tumor weight / Tumor inhibition rate of intraperitoneal injection: 5th day after last dose; for Y(%) tumor inhibition rate: intratumoral every 3 days x3, <150 μl, fifth day
Procedure: One of the core characteristics of tumors is heterogeneity. […] The corresponding negative control was normal saline.
(§1) They were injected intraperitoneally and intratumorally.
The negative control group was given normal saline. The compositions of the study drug are as shown in the table below: 4 types and concentrations of amino acid based nutrient single drugs (X % amino acid based nutrients), 18 types and concentrations of ineffective absorption drugs (Y % ineffective absorption drugs), 24 compositions comprising various types and concentrations of amino acid based nutrients and ineffectively absorption drugs (X % amino acid based nutrients/Y % ineffectively absorption drugs).
The negative control was normal saline. The compositions of 16 study drugs, as shown in the table below, comprise: a 5-fluorouracil single drug of 4 varying concentrations (X % 5-fluorouracil), and an amino acid based nutrient with 5 varying concentrations (Y % amino acid based nutrient), 7 compositions consisting of 5-fluorouracil of varying concentrations and an amino acid based nutrient of varying concentrations (X % 5-fluorouracil/Y % amino acid based nutrient). […] The dose at each time was: 5-fluorouracil 50 mg/kg, glutathione ≤1 g/kg, and an injection volume was ≤150 μl/mouse.
The negative control was normal saline, the positive control was 1% 5-fluorouracil, and the study drug was 1% methylene blue/10% amino acid based nutrient composition (the type of the amino acid based nutrient is variable). The amino acid based nutrients in the compositions used in study groups 1-13 were: arginine, glycine, cysteine hydrochloride, valine, threonine, proline, histidine hydrochloride, phenylalanine, lysine, leucine, alanine, glutathione, serine, and the study drug used in the study group 14 was 1% methylene blue/5% arginine/5% glycine.

breast cancer 4T1 cells = assay: Tumor weight and tumor inhibition in BALB/c mice bearing breast cancer 4T1 cells; conditions: for Tumor inhibition rate / Tumor weight (x ± s) / Tumor weight: intratumoral 150 μl/mouse every 3 days x3; for Intratumoral injection Tumor inhibition rate / Intratumoral injection Tumor weight: Table 10, avg tumor volume 336 mm^3, 150 μl/mouse every 3 days x3, 5th day after last dose;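 as to all read-outs here: subcutaneous grafts in the right axilla, tumors excised and weighed after euthanasia, inhibition rate derived from group mean tumor weight versus the negative control group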
Procedure: In the following examples, unless otherwise specified, animal tests of subcutaneous transplantation tumors were performed in accordance with test guidelines issued by a drug administration authority. […] The subcutaneous transplantation was carried out according to a conventional method for subcutaneous inoculation of tumor cells. […] Items to be observed, measured and analyzed in the experiments included general status, body weight, food intake, tumor volume, tumor weight, thymus weight, spleen weight, and the like.
The tumor growth inhibition rate (abbreviated as tumor inhibition rate in the present invention) is calculated through the following equation:
wherein TW is an average tumor weight of a study group; CW is an average tumor weight of a negative control group.
The effects of the co-use of drugs (including efficacy and safety) can theoretically be based on the judgment of q:
q=actual combined effect/theoretical expected effect of simple addition.
When q=1, the actual combined effect meets the theoretical expectation, showing an additive effect; when q<1, the actual combined effect is weaker than the theoretical expectation, showing an antagonistic effect; and when q>1, the actual combined effect exceeds the theoretical expectation, showing a synergic effect. Unless otherwise specified, single-use efficacy of A or B (denoted as EA and EB respectively) and the actual combined efficacy of A/B (denoted as EA+B) are both tumor inhibition rates.
In one experiment, the test animal was a BALB/c mouse, the modeling cells were breast cancer 4T1 cells, and the transplantation tumor was modeled at 1×10^6 cells/mouse under the skin of the animal's right axilla. […] The experimental groups were divided into 1 negative control group (group 0) and 13 study groups (groups 1-13). They were all injected intratumorally. […] Each group was administered once every 3 days for a total of 3 times, each time at an injection dose of 150 μl//mouse. During the administration, general state of the animals and the degree of necrosis of normal tissues around the tumor after the administration were observed. On the 5th day after the administration was ended, the animals were euthanized, and the tumor weight was measured after anatomy to the animals. The tumor inhibition rate was calculated from the negative control group of each administration mode.
In another experiment, the test animal was a BALB/c mouse, the modeling cells were breast cancer 4T1 cells, and the transplantation tumor was modeled at 1×10^6 cells/mouse under the skin of the animal's right axilla. […] Each group was administered by intratumoral injection once every 3 days for a total of 3 times, each time at an injection dose of 150 μl/mouse. On the 5th day after the administration was ended, the animals were euthanized, and the tumor weight was measured after anatomy to the animals. The tumor inhibition rate was calculated from the negative control group.
In another experiment, the test animal was BALB/c mice, the modeling cells were breast cancer 4T1 cells, and the transplantation tumor was modeled at 1×10^6 cells/mouse under the skin of the animal's right axilla. […] Each group was administered by intratumoral injection once every 3 days for a total of 3 times, each time at an injection dose of 150 μl/mouse. On the 5th day after the administration was ended, the animals were euthanized, and the tumor weight was measured after anatomy to the animals. The tumor inhibition rate was calculated from the negative control group.
In another experiment, the test animal was a BALB/c mouse, the modeling cells were breast cancer 4T1 cells, and the transplantation tumor under the skin of the animal's right axilla was modeled at 1×10^6 cells/mouse.

[2] = test system: pancreatic cancer cells PANC-1; assay: Tumor inhibition in nude mice bearing pancreatic cancer cells PANC-1; type: in vivo; conditions: for Tumor inhibition rate: Table 4, avg tumor volume 136 mm^3, intratumoral every 3 days x3, ≤150 μl, next day; for Tumor inhibition rate of intraperitoneal injection / Tumor inhibition rate of intratumoral injection: Table 3, avg tumor volume 105 mm^3, 100 μl/mouse every 3 days x3, next day after last dose
Procedure: as §1
After anatomy, the tumor weight was measured and the tumor inhibition rate was calculated.

[3] = Table 16, avg tumor volume 169 mm^3, intratumoral every 3 days x3, ≤150 μl/mouse, 5th day
[4] = Table 12, avg tumor volume 317 mm^3, 5th day
[5] = Table 11, avg tumor volume 164 mm^3, intratumoral every 3 days x3, ≤150 μl, fifth day after last dose
[6] = Table 6, avg tumor volume 153 mm^3, ≤120 μl/mouse every 3 days x3
[7] = Table 8, avg tumor volume 175 mm^3, ≤150 μl/mouse every 3 days x3
[8] = Table 17, avg tumor volume 317 mm^3, fifth day
[9] = Table 14, avg tumor volume 325 mm^3, 5th day

## O=c1[nH]cc(F)c(=O)[nH]1 [0.5% 5-fluorouracil, 5-fluorouracil]
[1]; [3]
  Tumor inhibition rate: (59%)*

## [Na+].[OH-] [0.5% NaOH, sodium hydroxide]
Breast cancer 4T1 cells; [4]
  Tumor inhibition rate: 31%
  Tumor weight (x ± s): 1.54 g

## Cl.N[C@@H](CCC(=O)O)C(=O)O [0.5% glutamic hydrochloride, L-glutamic hydrochloride]
[2]; hydrochloride
  Tumor inhibition rate: 11%

## Cl [0.5% hydrochloric acid, hydrochloric acid]
[1]; [5]
  Tumor inhibition rate: (53%)

## CN(C)c1ccc2nc3ccc(=[N+](C)C)cc-3sc2c1 [0.7% methylene blue, Methylene blue]
[1]; [6]
  Intratumoral injection Tumor inhibition rate: 13%
  Intratumoral injection Tumor weight: 2.02 ± 0.31 g
  Tumor inhibition rate of intraperitoneal injection: 2%

## Cl.N[C@@H](CCC(=O)O)C(=O)O [0.15% glutamic hydrochloride, L-glutamic hydrochloride]
[2]; hydrochloride
  Tumor inhibition rate: 16%

## Cl.N[C@@H](CCC(=O)O)C(=O)O [0.25% glutamic hydrochloride, L-glutamic hydrochloride]
[2]; hydrochloride
  Tumor inhibition rate: 13%

## Cl [0.25% hydrochloric acid, hydrochloric acid]
[1]; [5]
  Tumor inhibition rate: (31%)

## CN(C)c1ccc2nc3ccc(=[N+](C)C)cc-3sc2c1 [0.25% methylene blue, Methylene blue]
[1]; [5]
  Tumor inhibition rate: (11%)

## CN(C)c1ccc2nc3ccc(=[N+](C)C)cc-3sc2c1 [0.35% methylene blue, Methylene blue]
[1]; [5]
  Tumor inhibition rate: (18%)

## O=c1[nH]cc(F)c(=O)[nH]1 [0.75% 5-fluorouracil, 5-fluorouracil]
[1]; [3]
  Tumor inhibition rate: (63%)

## O=c1[nH]cc(F)c(=O)[nH]1 [1% 5-fluorouracil, 5-fluorouracil]
[2]
  Tumor inhibition rate of intraperitoneal injection: 63%
  Tumor inhibition rate of intratumoral injection: 59%
[1]; [6]
  Intratumoral injection Tumor inhibition rate: 66%
  Intratumoral injection Tumor weight: 0.78 ± 0.21 g
  Tumor inhibition rate of intraperitoneal injection: 59%
[1]; [7]
  Intratumoral injection Tumor inhibition rate: 67%
  Intratumoral injection Tumor weight: 0.84 ± 0.25 g
  Tumor inhibition rate of intraperitoneal injection: 58%
[1]; [3]
  Tumor inhibition rate: (66%)
[1]; Table 18, avg tumor volume 186 mm^3
  Y(%) tumor inhibition rate: 61%
[1]; Table 19, avg tumor volume 172 mm^3
  Y(%) tumor inhibition rate: 63%
Breast cancer 4T1 cells
  Intratumoral injection Tumor inhibition rate: 51%
  Intratumoral injection Tumor weight: 0.63 ± 0.21 g
Breast cancer 4T1 cells; [8]
  Tumor inhibition rate: 53%
  Tumor weight: 0.73 ± 0.21 g

## CC(=O)O [1% acetic acid, acetic acid]
[1]; [5]
  Tumor inhibition rate: (26%)

## N=C(N)NCCC[C@H](N)C(=O)O [1% arginine, L-arginine]
[2]
  Tumor inhibition rate: 17%

## Cl.N[C@@H](CCC(=O)O)C(=O)O [1% glutamic hydrochloride, L-glutamic hydrochloride]
[2]; hydrochloride
  Tumor inhibition rate: 18%

## N[C@@H](CCC(=O)N[C@@H](CS)C(=O)NCC(=O)O)C(=O)O [1% glutathione, Reduced glutathione]
[2]
  Tumor inhibition rate: 11%

## Cl [1% hydrochloric acid, hydrochloric acid]
[1]; [5]
  Tumor inhibition rate: (68%)

## O=c1[nH]cc(F)c(=O)[nH]1 [1.5% 5-fluorouracil, 5-fluorouracil]
[1]; [3]
  Tumor inhibition rate: (69%)

## [Cl-].[K+] [2% KCl, potassium chloride]
Breast cancer 4T1 cells; [9]
  Tumor inhibition rate: 11%
  Tumor weight (x ± s): 2.19 ± 0.31 g

## CC(=O)O [2% acetic acid, acetic acid]
[1]; [5]
  Tumor inhibition rate: (46%)

## N=C(N)NCCC[C@H](N)C(=O)O [2% arginine, L-arginine]
[2]
  Tumor inhibition rate: 15%

## Cl.N[C@@H](CCC(=O)O)C(=O)O [2% glutamic hydrochloride, L-glutamic hydrochloride]
[2]; hydrochloride
  Tumor inhibition rate: 49%

## N[C@@H](CCC(=O)N[C@@H](CS)C(=O)NCC(=O)O)C(=O)O [2% glutathione, Reduced glutathione]
[2]
  Tumor inhibition rate: 13%

## Cl [2% hydrochloric acid, hydrochloric acid]
[1]; [5]
  Tumor inhibition rate: (83%)

## N=C(N)NCCC[C@H](N)C(=O)O [2.5% arginine, L-arginine]
Breast cancer 4T1 cells; [8]
  Tumor inhibition rate: 5%
  Tumor weight: 1.48 ± 0.32 g

## N[C@@H](CCC(=O)N[C@@H](CS)C(=O)NCC(=O)O)C(=O)O [2.5% glutathione, Reduced glutathione]
[1]; [5]
  Tumor inhibition rate: (12%)*
[1]; [3]
  Tumor inhibition rate: (12%)

## CC/C=C\C/C=C\C/C=C\C/C=C\C/C=C\C/C=C\CCC(=O)O [3% DHA, Docosahexaenoic acid (DHA)]
[1]; [5]
  Tumor inhibition rate: (21%)

## N=C(N)NCCC[C@H](N)C(=O)O [3% arginine, L-arginine]
[2]
  Tumor inhibition rate: 19%

## N[C@@H](CCC(=O)N[C@@H](CS)C(=O)NCC(=O)O)C(=O)O [3% glutathione, Reduced glutathione]
[2]
  Tumor inhibition rate: 12%

## CC(=O)O [3.5% acetic acid, acetic acid]
[1]; [6]
  Intratumoral injection Tumor inhibition rate: 64%
  Intratumoral injection Tumor weight: 0.84 ± 0.23 g
  Tumor inhibition rate of intraperitoneal injection: 6%

## N=C(N)NCCC[C@H](N)C(=O)O [4% arginine, L-arginine]
Breast cancer 4T1 cells; [4]
  Tumor inhibition rate: 2%
  Tumor weight (x ± s): 2.31 g

## O=C1OC2(c3cc(I)c(O)c(I)c3Oc3c2cc(I)c(O)c3I)c2c(Cl)c(Cl)c(Cl)c(Cl)c21 [5% Bengal Red, Bengal Red]
[1]; [5]
  Tumor inhibition rate: (46%)

## CC/C=C\C/C=C\C/C=C\C/C=C\C/C=C\C/C=C\CCC(=O)O [5% DHA, Docosahexaenoic acid (DHA)]
[1]; [6]
  Intratumoral injection Tumor inhibition rate: 27%
  Intratumoral injection Tumor weight: 1.69 ± 0.33 g
  Tumor inhibition rate of intraperitoneal injection: 4%
[1]; [5]
  Tumor inhibition rate: (28%)

## N=C(N)NCCC[C@H](N)C(=O)O [5% arginine, L-arginine]
[2]
  Tumor inhibition rate: 16%
Breast cancer 4T1 cells; [8]
  Tumor inhibition rate: 10%
  Tumor weight: 1.40 ± 0.26 g

## Cl.N[C@@H](CCC(=O)O)C(=O)O [5% glutamic hydrochloride, L-glutamic hydrochloride]
[2]; hydrochloride
  Tumor inhibition rate: 76%

## N[C@@H](CCC(=O)N[C@@H](CS)C(=O)NCC(=O)O)C(=O)O [5% glutathione, Reduced glutathione]
[2]
  Tumor inhibition rate: 32%
[1]; [5]
  Tumor inhibition rate: (31%)
[1]; [3]
  Tumor inhibition rate: (32%)

## [Na+].[OH-] [7% NaOH, sodium hydroxide]
Breast cancer 4T1 cells; [4]
  Tumor inhibition rate: 75%
  Tumor weight (x ± s): 0.59 g

## N=C(N)NCCC[C@H](N)C(=O)O [7.5% arginine, L-arginine]
[2]
  Tumor inhibition rate: 21%

## N[C@@H](CCC(=O)N[C@@H](CS)C(=O)NCC(=O)O)C(=O)O [7.5% glutathione, Reduced glutathione]
[2]
  Tumor inhibition rate: 45%

## O=C1OC2(c3cc(I)c(O)c(I)c3Oc3c2cc(I)c(O)c3I)c2c(Cl)c(Cl)c(Cl)c(Cl)c21 [10% Bengal Red, Bengal Red]
[1]; [5]
  Tumor inhibition rate: (63%)

## CC(=O)O [10% acetic acid, acetic acid]
Breast cancer 4T1 cells
  Intratumoral injection Tumor inhibition rate: 53%
  Intratumoral injection Tumor weight: 0.60 ± 0.21 g

## N[C@@H](CCC(=O)N[C@@H](CS)C(=O)NCC(=O)O)C(=O)O [12.5% glutathione, Reduced glutathione]
[2]
  Tumor inhibition rate: 66%

## CC(=O)O [20% acetic acid, acetic acid]
[1]; [5]
  Tumor inhibition rate: (92%)**

## NCCCC[C@H](N)C(=O)O [20% lysine, L-lysine]
[2]
  Tumor inhibition rate of intraperitoneal injection: 53%
  Tumor inhibition rate of intratumoral injection: 1%
